In patent US20240041877A1, “DOSAGE REGIME AND METHOD FOR TREATING PULMONARY ARTERIAL HYPERTENSION” (Altavant Sciences GmbH, priority 2019, published 2024):

Experiment: Part 2 (MAD): plasma pharmacokinetics after BID oral KAR5585 for 14 days (incl. accumulation ratios and dose proportionality)
Settings: for RAUC0-12 / RCmax: Cohort 1, Day 14/Day 1 accumulation ratio
[1] = 100 mg (Cohort 2) to 400 mg (Cohort 4), 4-fold increase in dose, fed
[2] = 100 mg KAR5585 BID, fasted, Cohort 1
[3] = 100 mg KAR5585 BID, fasted, Part 2 Cohort 1, mean
[4] = 100 mg KAR5585 BID, fed, Cohort 2
[5] = 100 mg KAR5585 BID, fed, Part 2 Cohort 2, mean
[6] = KAR5585 100 mg BID fasted, Cohort 1, Day 1 AM, geo. mean
[7] = KAR5585 100 mg BID fasted, Cohort 1, Day 1 AM, mean
[8] = KAR5585 100 mg BID fasted, geo. mean
[9] = KAR5585 100 mg BID fasted, mean
[10] = KAR5585 100 mg BID fasted, Cohort 1, Day 14, geo. mean
[11] = KAR5585 100 mg BID fasted, Cohort 1, Day 14, mean
[12] = KAR5585 100 mg BID fed, Cohort 2, Day 1 AM, geo. mean
[13] = KAR5585 100 mg BID fed, Cohort 2, Day 1 AM, mean
[14] = KAR5585 100 mg BID fed, Cohort 2, Day 1 PM, geo. mean
[15] = KAR5585 100 mg BID fed, Cohort 2, Day 1 PM, mean

Source text: Food effect was to be evaluated in Part 1, Period 2.
Pharmacokinetic data were to be summarized descriptively.

Nc1nc(O[C@H](c2ccc(Cl)cc2-c2ccccc2)C(F)(F)F)cc(N2CCC3(CC2)CN[C@H](C(=O)O)C3)n1 [KAR5417, (S)-8-(2-amino-6-((R)-1-(5-chloro-[1,1T-biphenyl]-2-yl)-2,2,2-trifluoroeth-oxy)pyrimidin-4-yl)-2,8-diazaspiro[4.5]decane-3-carboxylic acid]
fold increase in mean AUC0-12, Day 1 [1]: 7.0 fold | fold increase in mean AUC0-12, Day 14 [1]: 4.6 fold | fold increase in mean AUC0-24, Day 1 [1]: 6.45 fold | fold increase in mean AUC0-24, Day 14 [1]: 4.45 fold | fold increase in mean Cmax, Day 1 [1]: 6.9 fold | fold increase in mean Cmax, Day 14 [1]: ~4.5 fold | RAUC0-12 (accumulation ratio for AUC0-12), range Day 7/Day 1 and Day 14/Day 1 (100 mg KAR5585 BID): 2.19-2.57 | half-life, Day 14 (100 mg KAR5585 BID, fasted): 18.8 h | peak mean concentration of KAR5417 relative to KAR5585, Day 1 [2]: approximately 7.25 fold | peak mean concentration of KAR5417 relative to KAR5585, Day 14 [2]: ~9.1 fold | time peak plasma concentrations were reached, Day 1 [2]: 2.0 to 6.0 h | AUC0-12, Day 1 [3]: 741 ng·h/mL | AUC0-24, Day 14 [3]: 1650 ng·h/mL | mean apparent elimination half-life, Day 14 (100 mg KAR5585 BID, fed): 19.6 h | Cmax (peak mean concentration), Day 1 [4]: 85.9 ng/mL | Cmax (peak mean concentration), Day 14 [4]: 168 ng/mL | mean Cmax plasma concentrations, range on all dosing days [4]: 85.9 to 168 ng/mL | AUC0-12, Day 1 [5]: 470 ng·h/mL | AUC0-24, Day 14 [5]: 1220 ng·h/mL | RAUC0-12 (accumulation ratio for AUC0-12), range Day 7/Day 1 and Day 14/Day 1 (200 mg KAR5585 BID): 1.09-1.34 | mean apparent elimination half-life, Day 14 (200 mg KAR5585 BID, fed): 25.0 h | RAUC0-12 (accumulation ratio for AUC0-12), range Day 7/Day 1 and Day 14/Day 1 (400 mg KAR5585 BID): 1.65-2.38 | mean apparent elimination half-life, Day 14 (400 mg KAR5585 BID, fed): 30.6 h | steady-state plasma levels achieved by (BID oral KAR5585 for 14 days): ≤ 7 days | AUC0-12 [6]: 643 ng·h/mL | AUC0-∞ [6]: 769 ng·h/mL | C12 [6]: 19.5 ng/mL | Cmax [6]: 101 ng/mL | Cmax/D [6]: 1.01 (ng/ml)/mg | t1/2 [6]: 3.37 h | AUC0-12 [7]: 741 ng·h/mL | AUC0-∞ [7]: 876 ng·h/mL | C12 [7]: 21.3 ng/mL | Cmax/D [7]: 1.21 (ng/ml)/mg | t1/2 [7]: 3.43 h | RAUC0-12 [8]: 1.64 | RCmax [8]: 1.75 | RAUC0-12 [9]: 1.83 | RCmax [9]: 2.56 | AUC0-12 [10]: 1150 ng·h/mL | AUC0-24 [10]: 1490 ng·h/mL | AUC0-24/D [10]: 14.9 (hr*ng/ml)/mg | AUC0-∞ [10]: 1960 ng·h/mL | C12 [10]: 42.0 ng/mL | C24 [10]: 18.1 ng/mL | Cmax [10]: 177 ng/mL | Cmax/D [10]: 1.77 (ng/ml)/mg | t1/2 [10]: 17.6 h | AUC0-12 [11]: 1280 ng·h/mL | AUC0-24 [11]: 1650 ng·h/mL | AUC0-24/D [11]: 16.5 (hr*ng/ml)/mg | AUC0-∞ [11]: 2220 ng·h/mL | C12 [11]: 46.3 ng/mL | Cmax/D [11]: 1.94 (ng/ml)/mg | t1/2 [11]: 18.8 h | AUC0-12 [12]: 428 ng·h/mL | AUC0-∞ [12]: 516 ng·h/mL | C12 [12]: 15.4 ng/mL | Cmax [12]: 79.2 ng/mL | Cmax/D [12]: 0.792 (ng/ml)/mg | t1/2 [12]: 4.16 h | AUC0-12 [13]: 470 ng·h/mL | AUC0-∞ [13]: 564 ng·h/mL | C12 [13]: 17.2 ng/mL | Cmax [13]: 85.9 ng/mL | Cmax/D [13]: 0.859 (ng/ml)/mg | t1/2 [13]: 4.18 h | AUC0-12 [14]: 714 ng·h/mL | AUC0-24/D [14]: 5.78 (hr*ng/ml)/mg | AUC0-∞ [14]: 1090 ng·h/mL | C12 [14]: 39.5 ng/mL | Cmax [14]: 119 ng/mL | Cmax/D [14]: 1.19 (ng/ml)/mg | t1/2 [14]: 6.95 h | AUC0-12 [15]: 748 ng·h/mL | AUC0-24 [15]: 1220 ng·h/mL | AUC0-24/D [15]: 6.09 (hr*ng/ml)/mg
